Calls of active or inactive are those of the source.
Assays:
Type in all cases: functional, cell-based
L02 [1] = assay: Anti-nonalcoholic steatohepatitis activity in FFA-induced human L02 cells assessed as downregulation of CD36 mRNA expression at 10 uM by QRT-PCR analysis
L02 [2] = assay: Anti-nonalcoholic steatohepatitis activity in FFA-induced human L02 cells assessed as upregulation of PPARalpha mRNA expression at 10 uM by QRT-PCR analysis
L02 [3] = assay: Anti-nonalcoholic steatohepatitis activity in FFA-induced human L02 cells assessed as reduction in lipid droplets after 48 hrs by Oil red O staining based assay; conditions: dose 5-10 µM
L02 [4] = assay: Anti-nonalcoholic steatohepatitis activity in FFA-induced human L02 cells assessed as downregulation of FASN mRNA expression at 10 uM by QRT-PCR analysis
L02 [5] = assay: Anti-nonalcoholic steatohepatitis activity in FFA-induced human L02 cells assessed as reduction in lipid droplets at 5 uM after 48 hrs by Oil red O staining based assay
L02 [6] = assay: Anti-nonalcoholic steatohepatitis activity in FFA-induced human L02 cells assessed as upregulation of ACOX1 mRNA expression at 10 uM by QRT-PCR analysis

Measured: Activity

CC(C)=CCC[C@]1(C)[C@@H](CC=C(C)C)C[C@]23C[C@H](C(C)(C)O)OC2=C(CC=C(C)C)C(=O)[C@@]1(C(=O)c1ccccc1)C3=O
active: L02 [1] | L02 [2] | L02 [3] Dose-Dependent Effect | L02 [4] | L02 [5] | L02 [6]

CC(C)=CCC/C(C)=C/C[C@]1(CC=C(C)C)C(=O)C(C(=O)c2ccccc2)=C2OC(C)(C)[C@@H]3C[C@]23C1=O
active: L02 [1] | L02 [2] | L02 [3] Dose-Dependent Effect | L02 [4] | L02 [5] | L02 [6]
